Data published in patent US20210290784A1, “POSITRON EMISSION TOMOGRAPHY (PET) RADIOTRACERS FOR IMAGING MACROPHAGE COLONY-STIMULATING FACTOR 1 RECEPTOR (CSF1R) IN NEUROINFLAMMATION” (The Johns Hopkins University, priority 2018, published 2021).

Legend:
CSF1R = CSF1R (Homo sapiens, UniProt P07333); assay: Postmortem human brain autoradiography; assay type: binding; set-up: from tissue; settings: for Autoradiography binding, Baseline: inferior parietal cortex slices
Source text: Use of human tissues has been approved by the Institutional Review Board of the Johns Hopkins Medical Institutions. […] The slides were exposed to X-ray film and analyzed with outcome expressed as pmol/mm^3 of wet tissue±SD.

[1] = Plasma free fraction, centrifree ultrafiltration; assay type: in vitro ADME; settings: baboon plasma, not affected by LPS or LPS and blocking

CSF1R, sequence (P07333 20-972): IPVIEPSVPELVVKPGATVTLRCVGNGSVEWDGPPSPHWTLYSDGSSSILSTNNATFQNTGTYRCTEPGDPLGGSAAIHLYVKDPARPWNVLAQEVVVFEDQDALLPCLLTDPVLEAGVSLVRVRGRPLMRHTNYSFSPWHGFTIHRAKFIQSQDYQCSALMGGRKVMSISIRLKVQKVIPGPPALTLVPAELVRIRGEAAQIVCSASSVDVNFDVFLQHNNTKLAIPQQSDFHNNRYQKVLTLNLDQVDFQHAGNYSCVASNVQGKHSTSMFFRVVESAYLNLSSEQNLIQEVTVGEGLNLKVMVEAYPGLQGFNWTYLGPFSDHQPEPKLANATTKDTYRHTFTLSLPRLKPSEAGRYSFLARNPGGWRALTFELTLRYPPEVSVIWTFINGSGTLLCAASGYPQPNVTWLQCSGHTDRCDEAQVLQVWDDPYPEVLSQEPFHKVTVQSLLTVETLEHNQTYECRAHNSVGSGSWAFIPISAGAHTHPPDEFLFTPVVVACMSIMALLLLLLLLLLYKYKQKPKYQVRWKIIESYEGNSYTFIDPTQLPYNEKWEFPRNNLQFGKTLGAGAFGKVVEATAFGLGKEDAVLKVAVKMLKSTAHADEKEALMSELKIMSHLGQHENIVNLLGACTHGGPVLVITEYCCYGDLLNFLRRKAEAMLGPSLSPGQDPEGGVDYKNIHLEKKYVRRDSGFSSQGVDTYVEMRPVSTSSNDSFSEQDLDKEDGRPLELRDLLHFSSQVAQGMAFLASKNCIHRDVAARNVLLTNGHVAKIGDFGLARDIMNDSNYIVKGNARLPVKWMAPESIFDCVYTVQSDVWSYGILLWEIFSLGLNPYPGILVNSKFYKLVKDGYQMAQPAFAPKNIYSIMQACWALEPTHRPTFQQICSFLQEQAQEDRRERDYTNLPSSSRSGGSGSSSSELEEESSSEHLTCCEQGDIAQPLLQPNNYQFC

**Q.** For `[11CH3]N1CCN(c2ccc(NC(=O)c3ccc(C#N)o3)c(N3CCCCC3)c2)CC1` [[^11C]CPPC, 5-cyano-N-(4-(4-[^11C]methylpiperazin-1-yl)-2-(piperidin-1-yl)phenyl)furan-2-carboxamide], which “increase of radiotracer binding in AD brain vs. control brain slices” value (CSF1R; baseline autoradiography) is on record?
**A.** 75-99%

**Q.** And the “Autoradiography binding, Blocking with unlabeled CPPC” value (“Autoradiography binding, Blocking” below) (CSF1R; sample 1-AD)?
**A.** 4.72 ± 1.07 pmol/mm3

**Q.** What about the “Autoradiography binding, Baseline” value (CSF1R; sample 1-AD) of the same compound?
**A.** 8.18 ± 0.68 pmol/mm3

**Q.** And the “Autoradiography binding, Blocking” value (CSF1R; sample 2-AD)?
**A.** 2.67 ± 0.53 pmol/mm3

**Q.** What about the “Autoradiography binding, Baseline” value (CSF1R; sample 2-AD) of the same compound?
**A.** 7.20 ± 1.55 pmol/mm3

**Q.** And the “Autoradiography binding, Blocking” value (CSF1R; sample 3-AD)?
**A.** 3.73 ± 1.07 pmol/mm3

**Q.** What about the “Autoradiography binding, Baseline” value (CSF1R; sample 3-AD) of the same compound?
**A.** 7.43 ± 1.59 pmol/mm3

**Q.** What about the “Autoradiography binding, Blocking” value (CSF1R; sample 4-control) of the same compound?
**A.** 2.86 ± 1.06 pmol/mm3

**Q.** And the “Autoradiography binding, Baseline” value (CSF1R; sample 4-control)?
**A.** 4.11 ± 1.14 pmol/mm3

**Q.** And the fraction unbound [1]?
**A.** 0.0548 ± 0.0098
